Measured values from US20240002404A1, “SALT OF PYRROLOPYRIMIDINE COMPOUND, CRYSTALLINE FORM THEREOF, AND APPLICATION THEREOF” (GUANGZHOU JOYO PHARMATECH CO., LTD, priority 2020, published 2024).
Structures can show the parent of a compound that is named as a salt. Where two headings read alike, the source gives them in different places. Blank lines part the entries; values can stand above or below the compound they belong to.

Legend:
[1] = Dynamic solubility evaluation in water and biological menstruums; assay type: physicochemical; details: for pH: solubility sample
Procedure: The dynamic solubility of the crystal form B of the sulfate, the crystal form A of the maleate and the crystal form C of the hydrochloride in water and three biological menstruums was evaluated.

[2] = Solid state stability (HPLC purity after storage); assay type: physicochemical
Procedure: The chemical stability of the samples was determined by HPLC after placing the crystal form B of the sulfate, the crystal form A of the maleate and the crystal form C of the hydrochloride at 25° C./60% RH and 40° C./75% RH for 1 week, respectively. For the maleate, additional stability data for one month and two months storage at 25° C./60% RH and 40° C./75% RH (open) were collected, and using the crystal form A of maleate as the starting sample, stability data for 24 hours storage at 60° C. (closed) were collected.

[3] = Hygroscopicity evaluation by DVS; assay type: physicochemical; details: 25° C./80% RH, listed as crystal form B of the sulfate
Procedure: The hygroscopicity of the crystal form B of the sulfate, the crystal form A of the maleate and the crystal form C of the hydrochloride was evaluated by DVS. The water adsorption (second adsorption curve) of the three salt forms at 25° C./80% RH is 7.62%, 1.35% and 4.77% respectively.

in vitro = details: human, Caco-2, pH 7.4
Procedure: The transport buffer solution was HBSS (Hanks' balanced salt solution) and 10 mM HEPES [N-(2-hydroxyethyl)piperazine-N-(2-ethanesulfonic acid) solution], with a pH value of 7.40±0.05; Caco-2 cells were purchased from ATCC.
Caco-2 cells were seeded at 1×10^5 cells/cm^2 in 96-well BD insert plates of polyethylene terephthalate (PET), and the medium was refreshed every 4-5 days until day 21-28 to form a confluent monolayer. Test compounds were tested in a two-way format at 2 μM in duplicate. Digoxin was added at 10 μM in the two-way format, and nadolol and metoprolol were added at 2 μM in the two-way format. Final concentration of DMSO was adjusted to less than 1%. The plates were incubated in a CO2 incubator at 37±1° C. for 2 h with 5% CO2 at saturated humidity without shaking. All samples were mixed with acetonitrile containing an internal standard, and centrifuged at 4000 rpm for 10 min. 100 microliters of supernatant was diluted with 100 microliters of distilled water for LC/MS/MS analysis. By LC/MS/MS analysis, the concentrations of the test compounds and the reference compound in the initial test article solution, the test article solution and the test compound solution using the peak area ratio of the analyte to the internal standard. After the transport test, the integrity of the Caco-2 cell monolayer was determined by fluorescein yellow exclusion reaction, and the apparent permeability coefficient and efflux ratio were calculated.

[4] = FaSSIF, 1 hour, 37° C., feeding 10 mg/mL
[5] = FaSSIF, 2 hours, 37° C., feeding 10 mg/mL
[6] = FaSSIF, 4 hours, 37° C., feeding 10 mg/mL
[7] = FaSSIF, 24 hours, 37° C., feeding 10 mg/mL
[8] = FeSSIF, 1 hour, 37° C., feeding 10 mg/mL
[9] = FeSSIF, 2 hours, 37° C., feeding 10 mg/mL
[10] = FeSSIF, 4 hours, 37° C., feeding 10 mg/mL
[11] = FeSSIF, 24 hours, 37° C., feeding 10 mg/mL
[12] = H2O, 24 hours, 37° C., feeding 10 mg/mL
[13] = H2O, 1 hour, 37° C., feeding 10 mg/mL
[14] = H2O, 2 hours, 37° C., feeding 10 mg/mL
[15] = H2O, 4 hours, 37° C., feeding 10 mg/mL
[16] = SGF, 1 hour, 37° C., feeding 10 mg/mL
[17] = SGF, 2 hours, 37° C., feeding 10 mg/mL
[18] = SGF, 4 hours, 37° C., feeding 10 mg/mL
[19] = SGF, 24 hours, 37° C., feeding 10 mg/mL

- S: solubility [1, 4]: 980 µg/mL
- S: solubility [1, 5]: 960 µg/mL
- S: solubility [1, 6]: 980 µg/mL
- S: solubility [1, 7]: 770 µg/mL
- S: solubility [1, 8]: 60 µg/mL
- S: solubility [1, 9]: 50 µg/mL
- S: solubility [1, 10]: 50 µg/mL
- S: solubility [1, 11]: 30 µg/mL
- S: solubility [1, 12]: 1700 µg/mL
- solubility at 1 h ([1]; SGF, 37 °C, simulated gastric fluid, thermodynamic from solid, SGF, 1 hour, 37° C., feeding 10 mg/mL, read-out: S: solubility): 6800 µg/mL
- solubility at 2 h ([1]; SGF, 37 °C, simulated gastric fluid, thermodynamic from solid, SGF, 2 hours, 37° C., feeding 10 mg/mL, read-out: S: solubility): 6400 µg/mL
- solubility at 4 h ([1]; SGF, 37 °C, simulated gastric fluid, thermodynamic from solid, SGF, 4 hours, 37° C., feeding 10 mg/mL, read-out: S: solubility): 6600 µg/mL
- solubility at 24 h ([1]; SGF, 37 °C, simulated gastric fluid, thermodynamic from solid, SGF, 24 hours, 37° C., feeding 10 mg/mL, read-out: S: solubility): 3900 µg/mL
- solubility at 1 h ([1]; water, 37 °C, water, thermodynamic from solid, H2O, 1 hour, 37° C., feeding 10 mg/mL, read-out: S: solubility): 2900 µg/mL
- solubility at 2 h ([1]; water, 37 °C, water, thermodynamic from solid, H2O, 2 hours, 37° C., feeding 10 mg/mL, read-out: S: solubility): 2800 µg/mL
- solubility at 4 h ([1]; water, 37 °C, water, thermodynamic from solid, H2O, 4 hours, 37° C., feeding 10 mg/mL, read-out: S: solubility): 2700 µg/mL
SMILES: CN(c1ncnc2[nH]ccc12)[C@@H]1CCc2cc(C#N)nn2C1 [Crystal form A of maleate]

- Purity (area %) ([2]; 25° C./60% RH, 1 week): 97.98 area %
- Purity/Initial Purity (%) ([2]; 25° C./60% RH, 1 week): 99.57%
- Purity (area %) ([2]; 40° C./75% RH, 1 week): 98.06 area %
- Purity/Initial Purity (%) ([2]; 40° C./75% RH, 1 week): 99.65%
- Purity (area %) ([2]; Initial): 98.40 area %
- water adsorption (second adsorption curve) [3]: 7.62%
- S: solubility [1, 4]: 3400 µg/mL
- S: solubility [1, 5]: 3400 µg/mL
- S: solubility [1, 6]: 3300 µg/mL
- S: solubility [1, 7]: 2600 µg/mL
- S: solubility [1, 8]: 70 µg/mL
- S: solubility [1, 9]: 70 µg/mL
- S: solubility [1, 10]: 60 µg/mL
- S: solubility [1, 11]: 50 µg/mL
- S: solubility [1, 13]: 3700 µg/mL
- S: solubility [1, 14]: 3800 µg/mL
- S: solubility [1, 15]: 3700 µg/mL
- S: solubility [1, 12]: 4000 µg/mL
- S: solubility [1, 16]: 5300 µg/mL
- S: solubility [1, 17]: 5000 µg/mL
- S: solubility [1, 18]: 4800 µg/mL
- S: solubility [1, 19]: 5300 µg/mL
- pH ([1]; FaSSIF, 1 hour): 2.7
- pH ([1]; FaSSIF, 2 hours): 2.6
- pH ([1]; FaSSIF, 4 hours): 2.7
- pH ([1]; FaSSIF, 24 hours): 2.4
- pH ([1]; FeSSIF, 1 hour): 4.3
- pH ([1]; FeSSIF, 2 hours): 4.3
- pH ([1]; FeSSIF, 4 hours): 4.3
- pH ([1]; FeSSIF, 24 hours): 4.4
- pH ([1]; H2O, 1 hour): 2.0
- pH ([1]; H2O, 2 hours): 2.2
- pH ([1]; H2O, 4 hours): 2.1
- pH ([1]; H2O, 24 hours): 1.9
- pH ([1]; SGF, 1 hour): 1.7
- pH ([1]; SGF, 2 hours): 1.8
- pH ([1]; SGF, 4 hours): 1.8
- pH ([1]; SGF, 24 hours): 1.6
SMILES: CN(c1ncnc2[nH]ccc12)[C@@H]1CCc2cc(C#N)nn2C1 [Crystal form B of sulfate]

- S: solubility [1, 4]: 670 µg/mL
- S: solubility [1, 5]: 640 µg/mL
- S: solubility [1, 6]: 590 µg/mL
- S: solubility [1, 7]: 490 µg/mL
- S: solubility [1, 8]: 20 µg/mL
- S: solubility [1, 9]: 20 µg/mL
- S: solubility [1, 10]: 20 µg/mL
- S: solubility [1, 11]: 10 µg/mL
- S: solubility [1, 13]: 2700 µg/mL
- S: solubility [1, 14]: 2400 µg/mL
- S: solubility [1, 15]: 2300 µg/mL
- S: solubility [1, 12]: 2000 µg/mL
- S: solubility [1, 16]: 5600 µg/mL
- S: solubility [1, 17]: 5300 µg/mL
- S: solubility [1, 18]: 5100 µg/mL
- S: solubility [1, 19]: 4300 µg/mL
SMILES: CN(c1ncnc2[nH]ccc12)[C@@H]1CCc2cc(C#N)nn2C1 [Crystal form C of hydrochloride]

- Papp A→B at 2 h, 2 μM (in vitro): 0.04 ×10⁻⁶ cm/s
- Papp B→A at 2 h, 2 μM (in vitro): 13.9 ×10⁻⁶ cm/s
- efflux ratio at 2 h, 2 μM (in vitro): 349
SMILES: C[C@H]1O[C@@H](O[C@H]2[C@@H](O)C[C@H](O[C@H]3[C@@H](O)C[C@H](O[C@H]4CC[C@@]5(C)[C@H](CC[C@@H]6[C@@H]5C[C@@H](O)[C@]5(C)[C@@H](C7=CC(=O)OC7)CC[C@]65O)C4)O[C@@H]3C)O[C@@H]2C)C[C@H](O)[C@@H]1O [Digoxin]

- Papp A→B at 2 h, 2 μM (in vitro): 18.1 ×10⁻⁶ cm/s
SMILES: COCCc1ccc(OCC(O)CNC(C)C)cc1 (centres unmarked) [Metoprolol]
